In patent US20070149515A1, “6-(2,4,6-Trifluorophenyl)-triazolopyrimidines, method for the production thereof, use thereof for controlling harmful fungi, and substances containing the same” (BASF Aktiengesellschaft, priority 2003, published 2007):

What was measured:
[1] = test system: Sphaerotheca fuliginea; assay: Protective application against powdery mildew on cucumber leaves; type: in vivo; details: 63 ppm, sprayed to runoff on cucumber seedlings 'Chinese Snake'; inoculated 20 hours after drying; assessed visually after 7 days; untreated plants 100% infected
Experimental: The active compounds were prepared separately or together as a stock solution with 0.25% by weight of active compound in acetone or DMSO. 1% by weight of the emulsifier Uniperol® EL (wetting agent with an emulsifying and dispersing action based on ethoxylated alkylphenols) was added to this solution and appropriately diluted with water to the desired concentration. Use example 1—Activity in protective application against powdery mildew on cucumber leaves caused by Sphaerotheca fuliginea Leaves of pot-grown cucumber seedlings of the variety “Chinese Snake” in the cotyledon stage were sprayed to runoff point with an aqueous suspension in the active compound concentration given below. 20 hours after the spray coating had dried on, the plants were inoculated with an aqueous suspension of spores of powdery mildew of cucumber (Sphaerotheca fuliginea). The plants were subsequently cultivated for 7 days in a greenhouse at temperatures of between. 20 and 24° C. and a relative atmospheric humidity of 60 to 80%. The extent of mildew development was then determined visually in % of infection of the cotyledon area.

[2] = test system: Pyrenophora teres; assay: 1 day protective application against net blotch of barley; type: in vivo; details: 63 ppm, sprayed to runoff on barley seedlings; inoculated 24 hours after drying; assessed visually after 6 days; untreated plants 90% infected
Experimental: The active compounds were prepared separately or together as a stock solution with 0.25% by weight of active compound in acetone or DMSO. 1% by weight of the emulsifier Uniperol® EL (wetting agent with an emulsifying and dispersing action based on ethoxylated alkylphenols) was added to this solution and appropriately diluted with water to the desired concentration. Use example 2—Activity in 1 day protective application against net blotch of barley caused by Pyrenophora teres Leaves of pot-grown barley seedlings were sprayed to runoff point with an aqueous suspension in the active compound concentration given below. 24 hours after the spray coating had dried on, the test plants were inoculated with an aqueous suspension of spores of Pyrenophora [syn. Drechslera] teres, the causative agent of net blotch. The test plants were subsequently placed in a greenhouse at temperatures of between 20 and 24° C. and a relative atmospheric humidity of 95 to 100%. After 6 days, the extent of development of the disease was determined visually in % of infection of the total leaf area.

In the case of CC1CCN(c2c(-c3c(F)cc(F)cc3F)c(C#N)nc3ncnn23)CC1 [Compound I-2, 5-cyano-6-(2,4,6-trifluorophenyl)-7-(4-methylpiperidinyl)[1,2,4]triazolo[1,5a]pyrimidine], the “extent of mildew development in % of infection of the cotyledon area” value [1] is reported as “no infection” and the “extent of development of the disease in % of infection of the total leaf area” value [2] is reported as “no infection”.
For COc1nc2ncnn2c(N2CCC(C)CC2)c1-c1c(F)cc(F)cc1F [Compound I-5, 5-methoxy-6-(2,4,6-trifluorophenyl)-7-(4-methylpiperidinyl)[1,2,4]triazolo[1,5a]pyrimidine], the “extent of mildew development in % of infection of the cotyledon area” value [1] was “no infection” and the “extent of development of the disease in % of infection of the total leaf area” value [2] was “no infection”.
